Holding throughout (type): cell-based
One experiment has as its target T1, hEP2/Gqs5 (Homo sapiens, UniProt P43116).
T1 construct: expressed in transfected cells; host or cells: HEK-293(EBNA)
Description: FLIPR calcium signal, hEP2. In outline:
(§1)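 HEK-293(EBNA) cells stably expressing each human prostanoid receptor (EP2 and EP3A coupled via Gqs5/Gqi5 chimeras) were loaded with Fluo-4 AM, and peak calcium fluorescence was measured on FLIPR at 37° C. Compounds were tested at 10^−5 M or from 10^−11 to 10^−5 M in duplicate, n≥3, with response expressed relative to buffer and standard agonist controls.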

The target of another experiment is T2, hEP3A/Gqi5 (Homo sapiens, UniProt P43115).
T2 construct: expressed in transfected cells; host or cells: HEK-293(EBNA)
T2 sequence (P43115 1-390): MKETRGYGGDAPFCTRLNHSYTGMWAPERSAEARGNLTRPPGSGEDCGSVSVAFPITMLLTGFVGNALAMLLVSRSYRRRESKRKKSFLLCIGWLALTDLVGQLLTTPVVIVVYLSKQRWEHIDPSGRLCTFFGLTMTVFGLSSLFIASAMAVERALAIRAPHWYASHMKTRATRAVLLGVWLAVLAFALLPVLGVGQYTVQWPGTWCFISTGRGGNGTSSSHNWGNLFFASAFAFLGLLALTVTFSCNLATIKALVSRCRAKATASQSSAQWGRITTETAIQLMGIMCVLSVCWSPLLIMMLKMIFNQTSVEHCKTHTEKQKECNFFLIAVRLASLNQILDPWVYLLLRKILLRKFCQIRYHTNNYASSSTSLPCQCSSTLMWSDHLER
Description: FLIPR calcium signal, hEP3A. In outline:
as §1

For experiment [1], the target named is T3, HEK-EBNA cells expressing a PG EP2 receptor subtype (Homo sapiens, UniProt P43116).
T3 construct: expressed in transfected cells; host or cells: HEK-EBNA
T3 sequence (P43116 whole entry): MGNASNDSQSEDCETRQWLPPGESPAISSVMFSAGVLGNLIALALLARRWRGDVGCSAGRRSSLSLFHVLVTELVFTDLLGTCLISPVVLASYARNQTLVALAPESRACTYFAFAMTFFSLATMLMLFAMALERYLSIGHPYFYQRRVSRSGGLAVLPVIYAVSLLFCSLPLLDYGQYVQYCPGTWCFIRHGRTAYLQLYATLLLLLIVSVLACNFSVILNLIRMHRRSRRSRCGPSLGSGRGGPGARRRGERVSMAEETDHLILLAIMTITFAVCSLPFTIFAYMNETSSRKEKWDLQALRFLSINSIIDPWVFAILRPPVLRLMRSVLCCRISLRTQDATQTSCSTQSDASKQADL
Description: cAMP assay, EP2. As to the method:
A 384-well drug plate was prepared to contain 6 test compounds, PGE2 and cAMP in 16 serial dilutions in triplicate, using a Biomek station. HEK-EBNA cells expressing a target PG receptor subtype (EP2 or EP4) were suspended in a stimulation buffer (HBSS, 0.1% BSA, 0.5 mM IBMX and 5 mM HEPES, pH 7.4) in a density of 10^4 cells/5 μl. The reaction was initiated by mixing 5 μL drug dilutions with 5 μl of HEK-EBNA cells in a well, carried out for 30 min at room temperature, and followed by the addition of 5 μl anti-cAMP acceptor beads in the control buffer with Tween-20 (25 mM NaCl, 0.03% Tween-20, 5 mM HEPES, pH7.4). After 30 min in the dark at room temperature, the mixtures were incubated with 15 μl biotinylated-cAMP/strepavidin donor beads in Lysis/Detection buffer (0.1% BSA, 0.3% Tween-20 and 5 mM HEPES, pH7.4) for 45 min at the room temperature. Fluorescence changes were read using a Fusion-alpha HT microplate reader.
(In general: Changes in cAMP serve as a functional read-out for many G protein-coupled receptors.)

The next experiment addresses T4, hDP/Gqs5 (Homo sapiens, UniProt Q13258).
T4 construct: expressed in transfected cells; host or cells: HEK-293(EBNA)
T4 sequence (Q13258 1-359): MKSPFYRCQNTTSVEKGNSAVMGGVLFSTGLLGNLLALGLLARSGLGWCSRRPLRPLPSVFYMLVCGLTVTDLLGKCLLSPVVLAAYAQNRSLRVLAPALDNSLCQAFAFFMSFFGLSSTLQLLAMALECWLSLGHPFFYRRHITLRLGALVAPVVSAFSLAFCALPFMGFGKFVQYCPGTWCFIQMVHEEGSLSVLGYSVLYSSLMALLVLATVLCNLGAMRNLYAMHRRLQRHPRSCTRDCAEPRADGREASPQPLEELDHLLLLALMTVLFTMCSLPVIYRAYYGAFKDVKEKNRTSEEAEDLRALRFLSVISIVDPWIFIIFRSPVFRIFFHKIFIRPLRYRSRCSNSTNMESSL
The experiment in a line: FLIPR calcium signal, hDP. The following applies: read-out: Other Receptors EC50 hDP. In outline:
as §1

The mark [2] stands for this setting: unit inferred, other columns of the table in nM, read-out: EP2 data flipr EC50.
Setting [3] is: read-out: Other Receptors EC50 hEP3A.
[4] abbreviates: unit inferred, read-out: EP2 data cAMP EC50.

Where two headings read alike, the source gives them in different places.

T1 sequence (P43116 whole entry): as the sequence (P43116 whole entry) above

In general, EC50 refers to the midpoint of the concentration-response curve. In the case of `CCCCCC(C)c1ccc([C@@H]2[C@@H](C/C=C\CCCC(=O)O)[C@H](C#N)C[C@H]2C)cc1` (some centres unmarked), the EC50 on hEP2/Gqs5 (Table 3, third part, value outside parentheses, read-out: Ca2+ Signal-EC50 (nM) EP2) was determined as 34 nM; at hEP3A/Gqi5 (Table 3, third part, read-out: Ca2+ Signal-EC50 (nM) EP3), 10000 nM; in experiment [1] (Table 3, third part, value in parentheses, read-out: EP2 EC50 in a cAMP mediated assay), 4 nM.
Regarding `CCCCCC(=O)c1ccc(N2C(=O)CC[C@@H]2CCCc2ccc(C(=O)O)s2)cc1`, the EC50 on hEP2/Gqs5 (setting [2]) came out at 16 nM; at hEP3A/Gqi5 (setting [3]) it was 2340 nM; on hDP/Gqs5, 7700 nM; in experiment [1] (setting [4]), 1.6 nM.
For `CC(C)(C)c1ccc(N2C(=O)CC[C@@H]2COCc2ccc(C(=O)O)o2)cc1`, the EC50 at hEP2/Gqs5 (setting [2]) was 442 nM; at hEP3A/Gqi5 (setting [3]) it was above 10000 nM; at hDP/Gqs5, 1920 nM; in experiment [1] (setting [4]), 28 nM.
On the same counts, the results for `CC(C)(C)c1ccc(N2C(=O)CC[C@@H]2COCc2ccc(C(=O)O)s2)cc1` are 1340 nM, 19200 nM, 2320 nM and 51 nM.
For `CC(C)(C)c1ccc(N2C(=O)CC[C@@H]2CCCCCCC(=O)O)cc1` the same measures were 4120 nM, 19500 nM, above 10000 nM and 548 nM.
Turning to `CCCCCC(O)c1ccc(N2C(=O)CC[C@@H]2COCc2ccc(C(=O)O)s2)cc1` (single isomer, unassigned) [drawing 148], the EC50 on hEP2/Gqs5 (setting [2]) was found to be 62 nM; on hEP3A/Gqi5 (setting [3]), 153 nM; at hDP/Gqs5, 7750 nM; in experiment [1] (setting [4]), 5 nM.
On the same counts, the results for `CCCCCC(O)c1ccc(N2C(=O)CC[C@@H]2CCCc2ccc(C(=O)O)s2)cc1` (single isomer, unassigned) [drawing 151] are 1.6 nM, 156 nM, 296 nM and 0.15 nM.
For `CCCCCCC(O)c1ccc(N2C(=O)CC[C@@H]2COCc2ccc(C(=O)O)s2)cc1` (single isomer, unassigned) [drawing 152] the same measures were 134 nM, 71 nM, 6830 nM and 7 nM.
Consider `CCCCCCC(O)c1ccc(N2C(=O)CC[C@@H]2CCCc2ccc(C(=O)O)s2)cc1` (single isomer, unassigned) [drawing 155], for which the EC50 on hEP3A/Gqi5 (setting [3]) was found to be 7 nM; on hDP/Gqs5 it was 37 nM; in experiment [1] (setting [4]), 1.4 nM.
Take `CCCCCCC(O)c1ccc(N2C(=O)CC[C@@H]2CCCc2ccc(C(=O)O)s2)cc1` (single isomer, unassigned) [drawing 156]: the EC50 was 5 nM on hEP2/Gqs5 (setting [2]), 33 nM on hEP3A/Gqi5 (setting [3]), 106 nM at hDP/Gqs5 and 0.6 nM in experiment [1] (setting [4]).
For `CCCCCC(O)c1ccc(N2C(=O)CC[C@@H]2COCc2ccc(C(=O)O)s2)cc1` (single isomer, unassigned) [drawing 176] the same measures were 62 nM, 153 nM, 7750 nM and 5 nM.
Regarding `CCCCCC(O)c1ccc(N2C(=O)CC[C@@H]2COCc2ccc(C(=O)O)s2)cc1` (single isomer, unassigned) [drawing 177], the EC50 on hEP2/Gqs5 (setting [2]) came to 15 nM; at hEP3A/Gqi5 (setting [3]) it was 1200 nM; at hDP/Gqs5, 6800 nM; in experiment [1] (setting [4]) it was 1.5 nM.
With `CCCCCC(O)c1ccc(N2C(=O)CC[C@@H]2CCCc2ccc(C(=O)O)s2)cc1` (single isomer, unassigned) [drawing 178], the EC50 on hEP2/Gqs5 (setting [2]) is 6 nM; on hEP3A/Gqi5 (setting [3]) it was 12 nM; on hDP/Gqs5 it was 812 nM; in experiment [1] (setting [4]), 0.19 nM.
For the compound `CCCCCC(O)c1ccc(N2C(=O)CC[C@@H]2CCCc2ccc(C(=O)O)s2)cc1` (single isomer, unassigned) [drawing 179], the EC50 is 1.6 nM at hEP2/Gqs5 (setting [2]), 156 nM on hEP3A/Gqi5 (setting [3]), 296 nM at hDP/Gqs5 and 0.15 nM in experiment [1] (setting [4]).
For `CCCCCC(O)c1ccc(N2C(=O)CC[C@@H]2CCCc2ccc(C(=O)O)s2)cc1` (single isomer, unassigned) [drawing 180], the EC50 was 134 nM at hEP2/Gqs5 (setting [2]), 71 nM on hEP3A/Gqi5 (setting [3]), 6830 nM on hDP/Gqs5 and 7 nM in experiment [1] (setting [4]).
On the same counts, the results for `CCCCCCC(O)c1ccc(N2C(=O)CC[C@@H]2CCCc2ccc(C(=O)O)s2)cc1` (single isomer, unassigned) [drawing 183] are 16 nM, 7 nM, 37 nM and 1.4 nM.
For `CCCCCCC(O)c1ccc(N2C(=O)CC[C@@H]2CCCc2ccc(C(=O)O)s2)cc1` (single isomer, unassigned) [drawing 184] the same measures were 5 nM, 33 nM, 106 nM and 0.6 nM.
For `CCCCCC(O)c1ccc(N2C(=O)CC[C@@H]2CCCc2ccc(C(=O)O)s2)cc1` (some centres unmarked) [drawing 145] the same measures were 5 nM, 155 nM, 1230 nM and 0.55 nM.
With `CCCCCC(O)c1ccc(N2C(=O)CC[C@@H]2CCCc2ccc(C(=O)O)s2)cc1` (some centres unmarked) [drawing 173], the EC50 was 5 nM at hEP2/Gqs5 (setting [2]), 155 nM on hEP3A/Gqi5 (setting [3]), 1230 nM at hDP/Gqs5 and 0.55 nM in experiment [1] (setting [4]).

For the origin of these results see patent US7799821B2, “Therapeutic compounds” (Allergan, Inc., priority 2004, dated 2010).
